Results taken from PMC3103600 (Journal of natural products, 2011).
Read-outs that look alike come from different tables or passages of the source.

Columns and labels:
[1] = test system: heme-regulated eIF2α kinase (HRI); test: Hsp90-dependent HRI maturation/activation in heme-deficient reticulocyte lysate; settings: 45 min
[2] = test system: Hsp90, Hsp70 and Cdc37 with HRI/K199R; assay type: biochemical; settings: low ionic strength wash
native luciferase = native luciferase (Photinus pyralis, UniProt P08659); test: Counter-screen against native luciferase; assay type: biochemical, firefly
[3] = test system: heme-regulated eIF2α kinase (HRI); test: Stability of [35S]HRI in reticulocyte lysate; assay type: biochemical; settings: 45 min, heme-deficient lysate
[4] = target: Hsp90NT (N-terminal domain of Hsp90α, amino acids 1–241) (Homo sapiens, UniProt P07900); test: SPR binding to N-terminal domain of Hsp90
[5] = target: full length Hsp90 (human Hsp90β) (Homo sapiens, UniProt P08238); test: SPR binding to full length Hsp90; settings: full length Hsp90, 25 °C
[6] = test system: Her2, Akt, Raf-1, Hsp70, Hsp90 in Sk-Br3 cells; test: Western blot of Hsp90 client proteins and heat shock proteins, SkBr3; assay type: cell-based; settings: Sk-Br3, 36 h
[7] = target: Hsp90CT (C-terminal domain of Hsp90, amino acids 531–732) (Homo sapiens, UniProt P07900); test: SPR binding to C-terminal domain of Hsp90
[8] = test system: Her2, Akt, Raf-1, Hsp70, Hsp90 in MCF7 cells; test: Western blot of Hsp90 client proteins and heat shock proteins, MCF7; assay type: cell-based; settings: MCF7, 36 h

Sequence of native luciferase (P08659 whole entry): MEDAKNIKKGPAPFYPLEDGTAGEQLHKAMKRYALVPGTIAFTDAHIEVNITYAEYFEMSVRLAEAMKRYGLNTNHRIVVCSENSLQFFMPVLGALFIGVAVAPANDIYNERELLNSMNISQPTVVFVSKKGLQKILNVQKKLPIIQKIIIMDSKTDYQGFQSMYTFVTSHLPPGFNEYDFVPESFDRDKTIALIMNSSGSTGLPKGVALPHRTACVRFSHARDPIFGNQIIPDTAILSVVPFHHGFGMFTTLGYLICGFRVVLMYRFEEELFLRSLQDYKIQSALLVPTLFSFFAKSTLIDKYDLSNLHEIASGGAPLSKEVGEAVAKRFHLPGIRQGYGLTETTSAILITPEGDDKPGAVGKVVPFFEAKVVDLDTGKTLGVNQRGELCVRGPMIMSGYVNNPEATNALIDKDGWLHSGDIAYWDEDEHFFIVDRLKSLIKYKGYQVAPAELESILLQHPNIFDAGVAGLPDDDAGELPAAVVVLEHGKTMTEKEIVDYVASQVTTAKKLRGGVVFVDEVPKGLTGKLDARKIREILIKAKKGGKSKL
Sequence of full length Hsp90 (human Hsp90β) (P08238 whole entry): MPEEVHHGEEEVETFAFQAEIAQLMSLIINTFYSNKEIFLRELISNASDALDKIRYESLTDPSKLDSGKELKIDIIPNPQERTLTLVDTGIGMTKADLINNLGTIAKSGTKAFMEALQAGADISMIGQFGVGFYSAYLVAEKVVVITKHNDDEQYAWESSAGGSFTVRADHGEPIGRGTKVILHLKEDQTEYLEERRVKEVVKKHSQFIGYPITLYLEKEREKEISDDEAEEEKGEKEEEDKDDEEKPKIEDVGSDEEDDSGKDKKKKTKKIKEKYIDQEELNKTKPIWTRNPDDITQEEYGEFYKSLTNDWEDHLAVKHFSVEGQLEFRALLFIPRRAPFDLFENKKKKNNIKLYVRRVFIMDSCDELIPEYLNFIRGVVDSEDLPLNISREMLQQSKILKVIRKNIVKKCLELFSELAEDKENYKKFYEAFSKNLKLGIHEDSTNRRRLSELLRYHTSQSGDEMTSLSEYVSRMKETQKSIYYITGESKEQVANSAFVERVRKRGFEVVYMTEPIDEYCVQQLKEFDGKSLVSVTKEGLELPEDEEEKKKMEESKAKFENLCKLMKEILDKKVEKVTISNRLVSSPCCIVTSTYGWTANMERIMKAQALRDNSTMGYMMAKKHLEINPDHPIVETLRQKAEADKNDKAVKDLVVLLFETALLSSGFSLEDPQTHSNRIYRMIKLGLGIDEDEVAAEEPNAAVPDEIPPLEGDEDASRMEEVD

For `CO[C@@H]1[C@@H](OC(N)=O)[C@@H](O)[C@H](Oc2ccc3c(O)c(NC(=O)c4ccc(O)c(CC=C(C)C)c4)c(=O)oc3c2C)OC1(C)C` [Compound 4, novobiocin], which “effect on HRI maturation/activation” value ([1]; 4.0 mM) is on record?
The value was “also inhibited the maturation/ activation of HRI”.

What about the “effect on binding of Hsp90, Hsp70, Cdc37 to HRI/K199R” value (“effect on binding of Hsp90, Hsp70” below) ([2]; 4.0 mM) of the same compound?
The value was “disrupted the interaction of Hsp90, Hsp70 and Cdc37 with HRI/K199R”.

For `CC1=C(O)C(=O)C=C2C1=CC=C1[C@@]2(C)CC[C@@]2(C)[C@@H]3C[C@](C)(C(=O)O)CC[C@]3(C)CC[C@]12C` [Compound 2, celastrol], which “effect on HRI maturation/activation” value ([1]; 100 µM) is on record?
Its value is “inhibited the maturation/ activation of HRI”.

What about the “direct effect on the activity of native luciferase” value (native luciferase) of the same compound?
The value was “Neither celastrol nor 1 had any direct effect”.

What about the “effect on binding of Hsp90, Hsp70” value ([2]; 100 µM) of the same compound?
Its value is “disrupted the binding of Hsp90, Hsp70, and Cdc37 to HRI”.

`COC1=C2C[C@@H](C)C[C@H](OC)[C@H](O)[C@@H](C)/C=C(\C)[C@H](OC(N)=O)[C@@H](OC)/C=C\C=C(/C)C(=O)NC(=CC1=O)C2=O` [Compound 3, geldanamycin] was tested. Which “effect on HRI maturation/activation” value ([1]; 80 µM) did it give?
The value was “inhibited the maturation/ activation of HRI”.

And the “loss of [35S]HRI compared to the DMSO control” value ([3]; 80 µM)?
The value was 0%.

Which results are given for `CO[C@H]1[C@H](OC(=O)c2ccc(C)[nH]2)[C@H](O)[C@@H](Oc2ccc3c(O)c(NC(=O)c4c[nH]c(C(=O)Nc5c(O)c6ccc(O[C@H]7OC(C)(C)[C@@H](OC)[C@H](OC(=O)c8ccc(C)[nH]8)[C@@H]7O)c(C)c6oc5=O)c4C)c(=O)oc3c2C)OC1(C)C` [Compound 5, coumermycin A1]?
effect on HRI maturation/activation ([1]; 400 µM): also inhibited the maturation/ activation of HRI; effect on binding of Hsp90, Hsp70, Cdc37 to HRI/K199R ([2]; 400 µM): disrupted the interaction of Hsp90, Hsp70 and Cdc37 with HRI/K199R

With `CC(C)=CCC[C@]1(C)C=Cc2c(O)c3c(c(CC=C(C)C)c2O1)O[C@]12C(=C[C@@H]4C[C@H]1C(C)(C)O[C@@]2(C/C=C(/C)C(=O)O)C4=O)C3=O` [Compound 1, (−)-gambogic acid] as the compound, how does the kd ([4]; 25 °C) read?
Its kd is 0.01122(7) S^−1.

And the kd ([4]; +20 µM GA in analyte buffer)?
Its kd is 0.0114(7) S^−1.

And the “effect on HRI maturation/activation” value ([1]; 50 µM)?
The value was “inhibited the maturation/ activation of HRI”.

And the “direct effect on the activity of native luciferase” value (native luciferase)?
The value was “Neither celastrol nor 1 had any direct effect”.

What about the kd [5] of the same compound?
The kd was 0.0113(4) S^−1.

And the “depletion of Hsp90-dependent proteins Her2, Akt, Raf-1” value [6]?
Its value is “deplete MCF7 and Sk-Br3 cells of Her2, Akt and Raf-1 in a concentration dependent fashion”.

What about the “induction of Hsp90 and Hsp70 expression” value [6] of the same compound?
The value was “induced Hsp90 and Hsp70 expression”.

What about the KD [7] of the same compound?
The KD was “no binding”.

What about the ka [7] of the same compound?
Its ka is “no binding”.

What about the kd [7] of the same compound?
The kd was “no binding”.

What about the “effect on binding of Hsp90, Hsp70” value ([2]; 50 µM) of the same compound?
The value was “disrupted the binding of Hsp90, Hsp70, and Cdc37 to HRI”.

And the “depletion of Hsp90-dependent proteins Her2, Akt, Raf-1” value [8]?
Its value is “deplete MCF7 and Sk-Br3 cells of Her2, Akt and Raf-1 in a concentration dependent fashion”.

And the “induction of Hsp90 and Hsp70 expression” value [8]?
The value was “induced Hsp90 and Hsp70 expression”.

What does the source list for `[Na+].[Na+].[O]=[Mo](=[O])([O-])[O-]` [molybdate, sodium molybdate]?
effect on HRI maturation/activation ([1]; 20 mM): inhibited the maturation/ activation of HRI; loss of [35S]HRI compared to the DMSO control ([3]; 20 mM): 10%; effect on binding of Hsp90, Hsp70, Cdc37 to HRI/K199R ([2]; 20 mM): stabilized the binding of Hsp90 and Cdc37 to HRI/K199R, while not affecting the interaction of Hsp70 with HRI/K199R
